Measured values taken from patent US20230286969A1, “AROMATIC SPIRO RING AMIDE DERIVATIVES FOR THE TREATMENT AND PROPHYLAXIS OF HEPATITIS B VIRUS INFECTION” (Hoffmann-La Roche Inc., priority 2020, published 2023).
pIC50: −log10 of the molar value. Read-outs that look alike come from different tables or passages of the source.

Columns and labels:
Assay type in all cases: cell-based
HBsAg = assay: PHH HBV natural infection assay, HBsAg (alphalisa)
Experimental: (§1) Detailed procedures regarding primary human hepatocyte (PHH) HBV natural infection assay are described as below. One tube of frozen PHH (10 million cells) is thawed in 37° C. water bath and then transferred to 20 mL of PHH thawing medium (Sigma, InVitroGRO HT Medium, Cat. S03319) with gently mixing. The cells were then centrifuged at […] for 5 min, the supernatant was discarded and the tube was refilled with 25 mL of PHH plating medium (Sigma, InVitroGRO CP Medium, Cat. S03317). The tube was shaken very gently to re-suspend all cells, and then 50 μl of cells were transferred to each well 384-well collagen I coated plate with appropriate liquid handling equipment, e.g. Integra VIAFLO384 or Agilent Bravo. The cells were then cultured for 24 hours in a cell incubator. For HBV infection, after PHH attachment on the culture plate, the plating medium was removed and replenished with PHH culture medium containing HBV virus. The PHH culture medium was prepared with Dulbecco's Modified Eagle Medium (DMEM)/F12 (1:1 in volume ratio) containing 10% fetal bovine serum (Gibco, Cat. 10099141), 5 ng/mL human epidermal growth factor (Gibco, Cat.PHG0311L), 20 ng/mL dexamethasone (Sigma, Cat.D4902-100 mg), 250 ng/mL human recombinant insulin (Gibco, Cat.41400045) and 100 U/mL penicillin. HBV virus at 200 genome equivalent (GE) per cell with 4% PEG8000 (Sigma, Cat.P1458) containing culture medium were added to the PHH culture medium for infection. The cells were then cultured for 24 hours in cell incubator. Then the cell culture supernatant was removed. The HBV-infected PHH were cultured with sandwich culture method with PHH culture medium containing 1% DMSO and 0.25 mg/mL matrix gel for 72 hours. The supernatant was then refreshed with PHH culture medium containing different concentrations of testing compounds for two times with 72-hour interval. At the end of treatment, the supernatant was collected for viral markers measurements, including HBsAg, HBeAg, HBV DNA and cytotoxicity. HBsAg and HBeAg were detected using alphalisa method using their specific antibodies. For HBV DNA detection, HBV DNA Quantitative Fluorescence Diagnostic Kit (Sansure Biotech Inc.) was used following the manufacture's protocol. Cytotoxicity was determined using Cell Counting Kit-8 (CCK8, Dojindo Molecular Technologies, Inc.).
(§2) The compounds of the present invention were tested for their capacity to inhibit HBsAg and HBeAg as described herein.

HBeAg = assay: PHH HBV natural infection assay, HBeAg (alphalisa)
Experimental: as §1, §2

[1] = PHH natural infection assay, cytotoxicity (Cell Counting Kit-8); details: human, HBV-infected primary human hepatocytes, CCK8, end of treatment
Experimental: as §1

[2] = Hepatitis B virus, Hepatocyte, 72 h, read-out: HBsAg IC50, HBV-infected primary human hepatocytes, supernatant, compound medium refreshed two times with 72-hour interval
[3] = Hepatitis B virus, Hepatocyte, 72 h, read-out: HbeAg IC50, HBV-infected primary human hepatocytes, supernatant, compound medium refreshed two times with 72-hour interval

Compound	pIC50 (HBsAg; [2])	pIC50 (HBeAg; [3])	CC50 at 144 h [1] [µM]	pIC50 (HBsAg; read-out: HBsAg IC50, HBV-infected primary human hepatocytes, supernatant, compound medium refreshed two times with 72-hour interval)	pIC50 (HBeAg; read-out: HbeAg IC50, HBV-infected primary human hepatocytes, supernatant, compound medium refreshed two times with 72-hour interval)
CN(C)S(=O)(=O)c1ccc(C(=O)NC2CC3(C2)CC(c2nc4cc(Cl)ccc4o2)C3)o1 (stereo not drawn) [Example 89, N-[6-(5-chloro-1,3-benzoxazol-2-yl)spiro[3.3]heptan-2-yl]-5-(dimethylsulfamoyl)furan-2-carboxamide]	5.98	6.14	> 10	–	–
O=C(NC1CC2(C1)CC(c1nc3cc(Cl)ccc3o1)C2)c1ccc(C(=O)C2CC2)o1 (stereo not drawn) [Example 10, N-[6-(5-chloro-1,3-benzoxazol-2-yl)spiro[3.3]heptan-2-yl]-5-(cyclopropanecarbonyl)furan-2-carboxamide]	5.48	5.53	96.1	–	–
CCS(=O)(=O)c1oc(C(=O)NC2CC3(C2)CC(c2nc4cc(Cl)ccc4o2)C3)cc1Br (stereo not drawn) [Example 36, 4-bromo-N-[6-(5-chloro-1,3-benzoxazol-2-yl)spiro[3.3]heptan-2-yl]-5-ethylsulfonyl-furan-2-carboxamide]	6.05	6.09	> 100	–	–
[H][C@]1(NC(=O)c2ccc(S(C)(=O)=O)o2)C[C@]2(C1)C[C@]([H])(c1nc3cc(Cl)ccc3o1)C2 (single isomer, unassigned) [Example 15-b, (Ra)—N-[6-(5-chloro-1,3-benzoxazol-2-yl)spiro[3.3]heptan-2-yl]-5-methylsulfonyl-furan-2-carboxamide]	–	–	35.8	6.05	6.16
N=S(=O)(c1ccc(C(=O)NC2CC3(C2)CC(c2nc4cc(Cl)ccc4o2)C3)o1)N1CCCC1 (stereo not drawn) [Example 66, N-[6-(5-chloro-1,3-benzoxazol-2-yl)spiro[3.3]heptan-2-yl]-5-(pyrrolidin-1-ylsulfonimidoyl)furan-2-carboxamide]	5.09	5.42	> 10	–	–
O=C(NC1CC2(C1)CC(c1nc3cc(Cl)ccc3o1)C2)c1ccc(S(=O)(=O)C(F)(F)F)o1 (stereo not drawn) [Example 43, N-[6-(5-chloro-1,3-benzoxazol-2-yl)spiro[3.3]heptan-2-yl]-5-(trifluoromethylsulfonyl)furan-2-carboxamide]	5.94	6.08	> 100	–	–
CC(C)(C)[S+]([O-])c1ccc(C(=O)NC2CC3(C2)CC(c2nc4cc(Cl)ccc4o2)C3)o1 (stereo not drawn) [Example 38, 5-tert-butylsulfinyl-N-[6-(5-chloro-1,3-benzoxazol-2-yl)spiro[3.3]heptan-2-yl]furan-2-carboxamide]	6.28	6.50	96.3	–	–
CCS(=O)(=O)c1ccc(C(=O)NC2CC3(C2)CC(c2nc4cc(Cl)ccc4o2)C3)o1 (stereo not drawn) [Example 16, N-[6-(5-chloro-1,3-benzoxazol-2-yl)spiro[3.3]heptan-2-yl]-5-ethylsulfonyl-furan-2-carboxamide]	5.82	5.99	74	–	–
O=C(NC1CC2(C1)CC(c1nc3cc(Cl)ccc3o1)C2)c1cc(Br)co1 (stereo not drawn) [Example 4, 4-bromo-N-[6-(5-chloro-1,3-benzoxazol-2-yl)spiro[3.3]heptan-2-yl]furan-2-carboxamide]	5.25	5.53	56	–	–
O=C(NC1CC2(C1)CC(c1nc3cc(Cl)ccc3o1)C2)c1occc1Br (stereo not drawn) [Example 5, 3-bromo-N-[6-(5-chloro-1,3-benzoxazol-2-yl)spiro[3.3]heptan-2-yl]furan-2-carboxamide]	5.09	5.20	73.2	–	–
O=C(NC1CC2(C1)CC(c1nc3cc(Cl)cnc3o1)C2)c1ccc(S(=O)(=O)C2CC2)o1 (stereo not drawn) [Example 49, N-[6-(6-chlorooxazolo[5,4-b]pyridin-2-yl)spiro[3.3]heptan-2-yl]-5-cyclopropylsulfonyl-furan-2-carboxamide]	5.62	5.76	84.5	–	–
O=C(NC1CC2(C1)CC(c1nc3cc(Cl)ccc3o1)C2)c1ccc([S+]([O-])C2CC2)o1 (stereo not drawn) [Example 40, N-[6-(5-chloro-1,3-benzoxazol-2-yl)spiro[3.3]heptan-2-yl]-5-cyclopropylsulfinyl-furan-2-carboxamide]	7.08	7.17	> 10	–	–
CC(C)S(=O)(=O)Cc1ccc(C(=O)NC2CC3(C2)CC(c2nc4cc(Cl)ccc4o2)C3)o1 (stereo not drawn) [Example 44, N-[6-(5-chloro-1,3-benzoxazol-2-yl)spiro[3.3]heptan-2-yl]-5-(isopropylsulfonylmethyl)furan-2-carboxamide]	5.74	5.81	95.8	–	–
COCCS(=O)(=O)c1ccc(C(=O)NC2CC3(C2)CC(c2nc4cc(Cl)ccc4o2)C3)o1 (stereo not drawn) [Example 28, N-[6-(5-chloro-1,3-benzoxazol-2-yl)spiro[3.3]heptan-2-yl]-5-(2-methoxyethylsulfonyl)furan-2-carboxamide]	6.12	6.29	94.2	–	–
CS(=N)(=O)c1ccc(C(=O)NC2CC3(C2)CC(c2nc4cc(Cl)cnc4o2)C3)o1 (stereo not drawn) [Example 63, N-[6-(6-chlorooxazolo[5,4-b]pyridin-2-yl)spiro[3.3]heptan-2-yl]-5-(methylsulfonimidoyl)furan-2-carboxamide]	5.17	5.31	> 100	–	–
COCCOCCOCC(=O)NS(=O)(=O)c1ccc(C(=O)N[C@H]2CC3(C2)C[C@H](c2nc4cc(Cl)ccc4o2)C3)o1 (single isomer, unassigned) [Example 79, (Sa)—N-[6-(5-chloro-1,3-benzoxazol-2-yl)spiro[3.3]heptan-2-yl]-5-[[2-[2-(2-methoxyethoxy)ethoxy]acetyl]sulfamoyl]furan-2-carboxamide, or (Ra)—N-[6-(5-chloro-1,3-benzoxazol-2-yl)spiro[3.3]heptan-2-yl]-5-[[2-[2-(2-methoxyethoxy)ethoxy]acetyl]sulfamoyl]furan-2-carboxamide]	5.21	5.33	> 10	–	–
O=C(N[C@H]1CC2(C1)C[C@H](c1nc3cc(Cl)ccc3o1)C2)c1ccc(S(=O)(=O)NC(=O)C2CCC2)o1 (single isomer, unassigned) [Example 72, (Sa)—N-[6-(5-chloro-1,3-benzoxazol-2-yl)spiro[3.3]heptan-2-yl]-5-(cyclobutanecarbonylsulfamoyl)furan-2-carboxamide, or (Ra)—N-[6-(5-chloro-1,3-benzoxazol-2-yl)spiro[3.3]heptan-2-yl]-5-(cyclobutanecarbonylsulfamoyl)furan-2-carboxamide]	6.50	6.41	> 100	–	–
CC(C)CS(=N)(=O)c1ccc(C(=O)NC2CC3(C2)CC(c2nc4cc(Cl)ccc4o2)C3)o1 (stereo not drawn) [Example 55, N-[6-(5-chloro-1,3-benzoxazol-2-yl)spiro[3.3]heptan-2-yl]-5-(isobutylsulfonimidoyl)furan-2-carboxamide]	6.10	6.01	83.3	–	–
COC(=O)CCC(=O)NS(=O)(=O)c1ccc(C(=O)N[C@H]2CC3(C2)C[C@H](c2nc4cc(Cl)ccc4o2)C3)o1 (single isomer, unassigned) [Example 75, (Sa)-methyl 4-[[5-[[6-(5-chloro-1,3-benzoxazol-2-yl)spiro[3.3]heptan-2-yl]carbamoyl]-2-furyl]sulfonylamino]-4-oxo-butanoate, or (Ra)-methyl 4-[[5-[[6-(5-chloro-1,3-benzoxazol-2-yl)spiro[3.3]heptan-2-yl]carbamoyl]-2-furyl]sulfonylamino]-4-oxo-butanoate]	5.60	5.77	> 10	–	–
O=C(NC1CC2(C1)CC(c1nc3cc(Cl)ccc3o1)C2)c1ccc(S(=O)(=O)C2CC2)o1 (stereo not drawn) [Example 17, N-[6-(5-chloro-1,3-benzoxazol-2-yl)spiro[3.3]heptan-2-yl]-5-cyclopropylsulfonyl-furan-2-carboxamide]	6.56	6.75	89.9	–	–
O=C(NC1CC2(C1)CC(c1nc3ccc(Cl)cc3o1)C2)c1ccc(C(F)(F)F)o1 (stereo not drawn) [Example 46, N-[6-(6-chloro-1,3-benzoxazol-2-yl)spiro[3.3]heptan-2-yl]-5-(trifluoromethyl)furan-2-carboxamide]	5.23	5.55	89.8	–	–
